What was measured:
[1] = target: T1, Tryptophan 2,3-dioxygenase (Homo sapiens, UniProt P48775); assay: Inhibition of recombinant full length C-terminal His-tagged human TDO expressed in Escherichia coli using L-Trp as substrate after 30 mins
[2] = target: T1, Tryptophan 2,3-dioxygenase; assay: Mixed type […] inhibition of recombinant full length C-terminal His-tagged human TDO expressed in Escherichia coli using L-Trp as substrate after 30 mins by Dixon plot analysis
[3] = target: T1, Tryptophan 2,3-dioxygenase; assay: Inhibition of TDO in human U87 MG cells using L-Trp as substrate after 8 hrs; format: cell-based, U-87MG ATCC
[4] = target: T1, Tryptophan 2,3-dioxygenase; assay: Inhibition of TDO (unknown origin) expressed in HEK293 cells using L-Trp as substrate after 8 hrs; format: cell-based
Homo sapiens = species: Homo sapiens; assay: Selectivity ratio of IC50 for IDO1 (unknown origin) to IC50 for recombinant full length C-terminal His-tagged human TDO
[5] = target: T1, Tryptophan 2,3-dioxygenase; assay: Uncompetitive inhibition of recombinant full length C-terminal His-tagged human TDO expressed in Escherichia coli using L-Trp as substrate after 30 mins by Dixon plot analysis
[6] = target: T1, Tryptophan 2,3-dioxygenase; assay: Inhibition of TDO (unknown origin)
[7] = target: Indoleamine 2,3-dioxygenase 1 (Homo sapiens, UniProt P14902); assay: Inhibition of IDO1 (unknown origin)
Chain of Indoleamine 2,3-dioxygenase 1 (P14902 whole entry): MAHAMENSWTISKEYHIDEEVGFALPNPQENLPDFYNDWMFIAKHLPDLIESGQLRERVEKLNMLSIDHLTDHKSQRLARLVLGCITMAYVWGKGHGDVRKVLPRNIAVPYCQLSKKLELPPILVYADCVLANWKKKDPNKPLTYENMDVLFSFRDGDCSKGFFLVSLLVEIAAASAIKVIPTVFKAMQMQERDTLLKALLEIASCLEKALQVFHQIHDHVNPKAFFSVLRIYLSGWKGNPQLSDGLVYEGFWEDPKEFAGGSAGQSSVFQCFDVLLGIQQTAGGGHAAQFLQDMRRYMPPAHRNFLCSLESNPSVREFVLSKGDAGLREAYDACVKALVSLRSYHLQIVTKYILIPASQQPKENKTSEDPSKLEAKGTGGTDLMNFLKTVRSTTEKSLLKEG

T1 sequence (P48775 whole entry): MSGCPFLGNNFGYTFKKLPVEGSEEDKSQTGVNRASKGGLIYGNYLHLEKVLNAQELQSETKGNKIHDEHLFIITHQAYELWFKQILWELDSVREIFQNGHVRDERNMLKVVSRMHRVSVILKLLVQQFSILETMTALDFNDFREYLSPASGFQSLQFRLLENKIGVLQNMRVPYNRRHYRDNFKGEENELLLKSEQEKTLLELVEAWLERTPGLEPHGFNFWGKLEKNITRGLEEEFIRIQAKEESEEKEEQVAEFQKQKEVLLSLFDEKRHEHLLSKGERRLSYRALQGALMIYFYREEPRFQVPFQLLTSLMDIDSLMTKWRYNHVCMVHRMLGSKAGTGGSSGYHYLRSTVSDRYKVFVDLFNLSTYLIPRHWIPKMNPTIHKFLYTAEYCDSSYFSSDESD

SMILES | IC50 [1] [nM] | Ki [2] [nM] | IC50 [3] [nM] | IC50 [4] [nM] | Ratio IC50 (Homo sapiens) | Ki [5] [nM] | Ki [6] [nM] | Ki [7] [nM]
O=C1c2ccccc2-n2c1nc1ccc(F)cc1c2=O | 9810 | 876 | 503 | 241 | 88 | – | – | –
O=C1c2c(Cl)cccc2-n2c1nc1ccccc1c2=O | 44800 | – | 227 | 229 | – | 8410 | – | –
O=C1c2ccc(Cl)cc2-n2c1nc1ccccc1c2=O | 224000 | 42700 | 957 | 733 | – | – | – | –
O=C1c2cc(O)c(O)cc2OC(c2ccc(O)c(O)c2)C1O (centres undefined) | – | – | – | – | – | – | 16000 | > 100000
NS(=O)(=O)NCCNc1nonc1C(=NO)Nc1ccc(F)c(Br)c1 [EPACADOSTAT] | 64500 | – | 260 | 242 | – | 21700 | – | –

Now from value to compound:

IC50 [1] [nM] | Ki [2] [nM] | IC50 [3] [nM] | IC50 [4] [nM] | Ratio IC50 (Homo sapiens) | Ki [5] [nM] | Ki [6] [nM] | Ki [7] [nM] | SMILES
3230 | 834 | 184 | 215 | 38 | – | – | – | Cc1ccc2c(c1)C(=O)c1nc3ccccc3c(=O)n1-2
3940 | – | 194 | 140 | – | 581 | – | – | O=C1c2ccccc2-n2c1nc1ccccc1c2=O [TRYPTANTHRIN]
937 | – | 54 | 53 | – | 356 | – | – | O=C1c2cc(Br)ccc2-n2c1nc1ccccc1c2=O
937 | – | 60 | 68 | – | 336 | – | – | O=C1c2cc(F)ccc2-n2c1nc1ccccc1c2=O
101 | – | 40 | 61 | – | 215 | – | – | O=C1c2cc([N+](=O)[O-])ccc2-n2c1nc1ccccc1c2=O
1490 | 1000 | 62 | 59 | – | – | – | – | O=C1c2cc(F)ccc2-n2c1nc1ccc(F)cc1c2=O

— ChEMBL document CHEMBL4382205, “Tryptophan 2,3-dioxygenase inhibitory activities of tryptanthrin derivatives” (Eur J Med Chem, 2018)
